# Measured values published in patent publication US20250140406A1, “CLASSIFYING TUMORS AND PREDICTING RESPONSIVENESS” (Oncocyte Corporation, priority 2022, published 2025).
# Columns and labels:
# [1] = tested on: cancer cell lines classified IM, MSL, M; assay: PRISM screen compound sensitivity correlated with IM, MSL and M subtype of cell lines (101 gene signature); format: cell-based; conditions: for IM Corr test: correlation of PRISM compound sensitivity with IM subtype correlation; for M Corr test: correlation of PRISM compound sensitivity with M subtype correlation; for MSL Corr test: correlation of PRISM compound sensitivity with MSL subtype correlation
# [2] = tested on: cancer cell lines, DetermaIO classes; assay: Association of PRISM compound sensitivity with DetermaIO (DTIO) cell line classes; format: cell-based
# [3] = subtype (IM, MSL or M) assigned to the compound by negative correlation of PRISM sensitivity with subtype, training cell set (371 cell lines), 101 gene signature
# [4] = correlation of PRISM compound sensitivity with DTIO (DetermaIO), test cell set (188 cell lines)
# [5] = correlation of PRISM compound sensitivity with DTIO (DetermaIO), training cell set (371 cell lines)
# [6] = correlation of PRISM compound sensitivity with DTIO, test cell set
# [7] = correlation of PRISM compound sensitivity with DTIO, training cell set
# [8] = subtype (IM, MSL or M) with which PRISM compound sensitivity is negatively correlated, training cell set, 101 gene signature
# [9] = subtype (IM, MSL or M) with which compound sensitivity is negatively correlated, training cell set (371 cell lines), 101 gene signature
# [10] = association of compound sensitivity with DetermaIO classes, test data set
# [11] = association of compound sensitivity with DetermaIO classes, training data set
SMILES,IM Corr test ([1]; test cell set (188 cell lines)),M Corr test ([1]; test cell set (188 cell lines)),MSL Corr test ([1]; test cell set (188 cell lines)),"DTIO Corr test [2, 6]","DTIO Corr train [2, 7]","DTIO Corr test [2, 10]","DTIO Corr train [2, 11]",also measured
c1ccc2sc(N3CCN(Cc4ccc5c(c4)OCO5)CC3)nc2c1,0.03417,−0.06017,−0.05087,–,–,–,–,"TNBCType train [1, 3]: MSL; DTIO Corr test [2, 4]: 0.0115; DTIO Corr train [2, 5]: 0.00776"
CCCCC/C=C\C=C\CCCCCCCCC(=O)O,–,–,–,−0.07628,−0.1009,–,–,IM Corr test ([1]; test cell set): −0.1138; M Corr test ([1]; test cell set): 0.05243; MSL Corr test ([1]; test cell set): 0.00293
CN(N=O)C(=O)N[C@H]1C(O)O[C@H](CO)[C@@H](O)[C@@H]1O (mixture of isomers) [streptozotocin],–,–,–,−0.06131,0.03601,–,–,"IM Corr test ([1]; test cell set): −0.07058; M Corr test ([1]; test cell set): 0.07616; MSL Corr test ([1]; test cell set): −0.07788; TNBCType train [1, 8]: MSL"
"CCNCCCNCCCCNCCCNCC [1,12-Besm]",−0.00575,−0.0837,−0.1322,0.02016,0.07515,–,–,–
C[C@@]1(O)[C@H](O)[C@@H](CO)O[C@H]1n1cnc2c(NC3CCCC3)nc(Cl)nc21 [2′-MeCCPA],−0.06271,0.03452,−0.04413,–,–,–,–,"TNBCType train [1, 3]: MSL; DTIO Corr test [2, 4]: −0.0753; DTIO Corr train [2, 5]: −0.01341"
Nc1nccc2c1ncn2C1C=C(CO)C(O)C1O (centres unmarked) [3-deazaneplanocin-A],−0.02722,0.1507,0.09034,–,–,–,–,"DTIO Corr test [2, 4]: −0.05245; DTIO Corr train [2, 5]: −0.1309"
O=c1[nH]cnc2ccccc12 [4-HQN],−0.06704,0.04595,0.1063,–,–,–,–,"DTIO Corr test [2, 4]: 0.05447; DTIO Corr train [2, 5]: −0.1475"
O=S(=O)(O)c1ccc(O)cc1 [4-phenolsulfonic-acid],–,–,–,−0.03477,−0.1569,–,–,IM Corr test ([1]; test cell set): −0.06223; M Corr test ([1]; test cell set): 0.02717; MSL Corr test ([1]; test cell set): 0.006866
O=C(O)c1ccc(N2C(=O)/C(=C\c3ccc(-c4ccc([N+](=O)[O-])cc4)o3)C=C2c2ccccc2)cc1 [4E1RCat],0.05564,−0.08971,0.01051,–,–,–,–,"DTIO Corr test [2, 4]: 0.01627; DTIO Corr train [2, 5]: 0.1551"
Cc1ccc(C[N+](C)(C)C)o1.[I-] [5-methylfurmethiodide],–,–,–,−0.01347,−0.1413,–,–,IM Corr test ([1]; test cell set): −0.09845; M Corr test ([1]; test cell set): 0.06783; MSL Corr test ([1]; test cell set): 0.0844
CN[C@@H]1C[C@H]2O[C@@](C)([C@@H]1OC)n1c3ccccc3c3c4c(c5c6ccccc6n2c5c31)C(=O)N[C@H]4O [7-hydroxystaurosporine],–,–,–,−0.07646,−0.1515,–,–,IM Corr test ([1]; test cell set): −0.06588; M Corr test ([1]; test cell set): 0.06924; MSL Corr test ([1]; test cell set): 0.09088
COc1ccc2nc3c(c(N)c2c1)CCCC3 [7-methoxytacrine],–,–,–,0.06329,−0.03204,–,–,"IM Corr test ([1]; test cell set): −0.03879; M Corr test ([1]; test cell set): −0.03683; MSL Corr test ([1]; test cell set): −0.06604; TNBCType train [1, 8]: MSL"
Nc1nc2c(nc(Br)n2[C@@H]2O[C@@H]3COP(=O)(O)O[C@H]3[C@H]2O)c(=O)[nH]1 [8-bromo-cGMP],−0.00708,−0.06633,−0.05953,−0.017,0.07485,–,–,"TNBCType train [1, 9]: MSL"
CCN(CC)CCCCN1c2ccccc2Oc2ccc(Cl)cc21 [10-DEBC],−0.00116,−0.0627,−0.03074,–,–,–,–,"DTIO Corr test [2, 4]: −0.02503; DTIO Corr train [2, 5]: −0.1109"
Cc1ccc(Sc2cncc3sc(C(N)=O)cc23)cc1 [A205804],−0.1562,0.1655,0.07391,–,–,–,–,"DTIO Corr test [2, 4]: −0.1235; DTIO Corr train [2, 5]: −0.1273"
C/C=C1/[C@H](O[C@@H]2O[C@H](CO)[C@@H](O)[C@H](O)[C@H]2O)OC=C(C(=O)OC)[C@H]1CC(=O)OCCc1ccc(O)c(O)c1 [A00842753],–,–,–,–,–,0.02172,−0.00213,"TNBCType test ([1]; classification of association of compound sensitivity with IM, MSL and M cell line classes, test data set): MSL; TNBCType train ([1]; classification of association of compound sensitivity with IM, MSL and M cell line classes, training data set): MSL"
C#Cc1cccc2c1c(C(=O)c1ccc(Cn3c(C)nc4cnccc43)c(F)c1)cn2C(=O)N(C)C [ABT-491],−0.08486,0.04621,0.009812,–,–,–,–,"DTIO Corr test ([2]; correlation of PRISM compound sensitivity with DTIO, test cell set (188 cell lines)): −0.1207; DTIO Corr train ([2]; correlation of PRISM compound sensitivity with DTIO, training cell set (371 cell lines)): −0.1065"
C/C(=N\NC(=O)[C@H]1C(=O)NC[C@@H]1c1ccccc1)c1cccc(Br)c1 [AC-264613],−0.07621,0.0938,0.002402,–,–,–,–,"DTIO Corr test [2, 4]: −0.03521; DTIO Corr train [2, 5]: −0.07682"

SMILES,IM Corr test ([1]; test cell set (188 cell lines)),M Corr test ([1]; test cell set (188 cell lines)),MSL Corr test ([1]; test cell set (188 cell lines)),"DTIO Corr test [2, 6]","DTIO Corr train [2, 7]","DTIO Corr test [2, 10]","DTIO Corr train [2, 11]",also measured
C[C@H](Nc1ncnc2[nH]cnc12)c1cc2ccc(F)cc2nc1-c1ccccn1 [AMG319],0.07986,−0.1713,−0.08814,0.03283,−0.03859,–,–,"TNBCType train [1, 9]: MSL"
C[C@H](Nc1ncnc2[nH]cnc12)c1cc2ccc(F)cc2nc1-c1ccccn1 [AMG-319],–,–,–,−0.04463,−0.0218,–,–,"IM Corr test ([1]; test cell set): −0.00518; M Corr test ([1]; test cell set): −0.1202; MSL Corr test ([1]; test cell set): −0.07748; TNBCType train [1, 8]: MSL"
CCOc1ccc(-n2c([C@@H](C)N(Cc3cccnc3)C(=O)Cc3ccc(OC(F)(F)F)cc3)nc3ncccc3c2=O)cc1 [AMG-487],−0.08583,0.04766,0.1557,–,–,–,–,"DTIO Corr test [2, 4]: −0.01666; DTIO Corr train [2, 5]: −0.0821"
C[C@@H]1COC(Nc2ccc3ncnc(Nc4ccc(OCc5nccs5)c(Cl)c4)c3c2)=N1 [ARRY-334543],–,–,–,−0.03109,−0.05992,–,–,"IM Corr test ([1]; test cell set): −0.1679; M Corr test ([1]; test cell set): 0.2632; MSL Corr test ([1]; test cell set): 0.3622; DTIO Corr test ([2]; correlation of compound sensitivity with DetermaIO (DTIO), test set): −0.03109; DTIO Corr train ([2]; correlation of compound sensitivity with DetermaIO (DTIO), training set): −0.05992"
Clc1ccc(C2(c3ccc(-c4cn[nH]c4)cc3)CCNCC2)cc1 [AT7867],0.04603,−0.1665,−0.1142,0.003574,0.04812,–,–,"TNBCType train [1, 9]: MSL"
C=CC(=O)Nc1cc2c(Nc3ccc(F)c(Cl)c3)ncnc2cc1C#CC(C)(C)N1CCN(C)CC1.Cc1ccc(S(=O)(=O)O)cc1.Cc1ccc(S(=O)(=O)O)cc1 [AV-412],–,–,–,−0.04654,−0.09469,–,–,"IM Corr test ([1]; test cell set): −0.1668; M Corr test ([1]; test cell set): 0.2317; MSL Corr test ([1]; test cell set): 0.3378; DTIO Corr test ([2]; correlation of compound sensitivity with DTIO, test set): −0.04654; DTIO Corr train ([2]; correlation of compound sensitivity with DTIO, training set): −0.09469"
Cc1cc(Nc2nc(N[C@@H](C)c3ccc(F)cc3)c(C#N)cc2F)n[nH]1 [AZ960],−0.0625,0.008122,0.05509,–,–,–,–,"DTIO Corr test [2, 4]: −0.07766; DTIO Corr train [2, 5]: −0.135"
C[C@@H]1COC(Nc2ccc3ncnc(Nc4ccc(OCc5nccs5)c(Cl)c4)c3c2)=N1 [K46386702],–,–,–,–,–,−0.03109,−0.05992,–
COc1cc2nccc(Oc3ccc(NC(=O)Nc4ccc(F)cc4F)c(F)c3)c2cc1OC [K47150025],–,–,–,–,–,0.03732,0.02512,–
NC(=O)c1cccc2cn(-c3ccc([C@@H]4CCCNC4)cc3)nc12 [K54955827],–,–,–,–,–,−0.03477,0.03577,–
COc1cc(N2CCC(N3CCN(C)CC3)CC2)ccc1Nc1ncc(Cl)c(Nc2ccccc2P(C)(C)=O)n1 [K56981171],–,–,–,–,–,0.04024,−0.1728,–
OCCn1cc(-c2ccc3c(c2)CC/C3=N\O)c(-c2ccncc2)n1 [K67578145],–,–,–,–,–,0.1581,0.1101,–
O=c1cc(-c2ccccc2)oc2cc(O)c(O)c(O)c12 [K72327355],–,–,–,–,–,−0.04244,−0.1442,–
Nc1nccc2c1ncn2C1C=C(CO)C(O)C1O (centres unmarked) [K77791657],–,–,–,–,–,−0.05245,−0.1309,–
CC[C@@]1(O)C(=O)OCc2c1cc1n(c2=O)Cc2cc3c([N+](=O)[O-])cccc3nc2-1 [K79821389],–,–,–,–,–,−0.06417,−0.1178,–
C=C1/C(=C\C=C2/CCC[C@]3(C)[C@@H]([C@H](C)OCCC(C)(C)O)CC[C@@H]23)C[C@@H](O)C[C@@H]1O [K81332461],–,–,–,–,–,−0.00506,−0.07504,–
Cn1c(Nc2ccc(C(F)(F)F)cc2)nc2cc(Oc3ccnc(-c4ncc(C(F)(F)F)[nH]4)c3)ccc21 [K93123848],–,–,–,–,–,0.1916,0.1011,–
O=C1[C@H](Cc2ccc(O)cc2)N2C(=O)CCN(C(=O)NCc3ccccc3)[C@H]2CN1Cc1cccc2ccccc12 [K94455792],–,–,–,–,–,0.1635,0.1783,–
